Measurements taken from patent US20220305012A1, “L[…] TREATING SLEEP ISSUES” (EISAI R&D MANAGEMENT CO., LTD., priority 2019, published 2022).

How the values were obtained:
[1] = tested on: Subjects Having Insomnia Disorder; test: Example 2: subjective sleep efficiency (sSE), sleep diary; assay type: in vivo, human
Text: As used herein, the term “subjective sleep efficiency”, abbreviated as “sSE”, means the proportion of sTST per subjective time spent in bed, calculated as the interval from the time the subject reports attempting to sleep until the time the subject stopped trying to sleep for the night (operationalized as the time the subject got out of bed for the day), and time spent asleep derived from subjective time spent in bed minus sWASO. As used herein, an “improvement of sleep efficiency in Subjective Sleep Efficiency (sSE)” means an increase in sleep efficiency in Subjective Sleep Efficiency (sSE).
In some embodiments, sleep diaries were used to assess sleep parameters reported by subjects (i.e., subjective assessments) including subjective sleep onset latency (sSOL), subjective sleep efficiency (sSE), subjective WASO (sWASO), and subjective total sleep time (sTST). Subjects were instructed to complete the Sleep Diary developed based on the consensus Sleep Diary as described in Carney et al., “The consensus sleep diary: standardizing prospective sleep self-monitoring,” Sleep 2012; 35(2):287-302. In some embodiments, the Sleep Diary was used to assess the subject's global perception of quality of sleep on the previous night with the following question: “How would you rate the quality of your sleep last night?” Subjects rated the quality of their sleep on a scale from 1 to 9, with 1 being extremely poor and 9 being extremely good. In some embodiments, the Sleep Diary was used to assess subjective ratings of morning sleepiness with the following question: “How alert/sleepy do you feel this morning?” Subjects rated their sleepiness/alertness level on a Likert scale from 1 to 9, with 1 being extremely sleepy and 9 being extremely alert.
sSE—subjective sleep efficiency: proportion of sTST per subjective time spent in bed, calculated as the interval from the time the subject reports attempting to sleep until the time the subject stopped trying to sleep for the night (operationalized as the time the subject got out of bed for the day), and time spent asleep derived from subjective time in bed minus sWASO.
(§1) The treatment period lasted for 31 days. Subjects were randomized in a double-blind manner and received placebo, a tablet containing 5 mg of lemborexant, a tablet containing 10 mg of lemborexant, or a tablet containing 6.25 mg of zolpidem ER.
Once home, the subject ingested study drug each night prior to bedtime and completed their sleep diary within 1 hour of waketime.

[2] = tested on: Subjects Having Insomnia Disorder; test: Example 2: return to sleep latency; assay type: in vivo, human
[3] = tested on: Subjects Having Insomnia Disorder; test: Example 2: latency to persistent sleep (LPS), polysomnography; assay type: in vivo, human
Method: As used herein, the term “latency to persistent sleep”, abbreviated as “LPS.” means the minutes from lights off to the first epoch of 20 consecutive epochs (10 minutes) of non-wakefulness.
In some embodiments, a sleep parameter is determined objectively using polysomnography. Polysomnography is the monitoring of multiple electrophysiological parameters during sleep and generally includes measurement of EEG activity, electro-oculographic activity and electromyographic activity, as well as other measurements.
LPS—latency to persistent sleep: minutes from lights off to the first epoch of 20 consecutive epochs of non-wakefulness.
as §1
Within 5 minutes of the subject's mean habitual bedtime, study drug was administered and an overnight polysomnogram recording was initiated. At completion of the recording the following morning (Day 2), postural stability and cognitive performance were assessed. On the Day 2 evening, subjects returned to the clinic and a blood sample was collected before administering study drug, and then study drug was administered within 5 minutes of the subject's mean habitual bedtime. Again, a polysomnogram recording was initiated. The next morning (Day 3), postural stability and cognitive performance were assessed. A blood sample was also collected.
On Day 29, subjects returned to the clinic. Study drug was administered within 5 minutes of the subject's mean habitual bedtime and a polysomnogram recording was conducted. On the following morning (Day 30), postural stability and cognitive performance were assessed. After 1.5 hours of waketime, subjects rated their morning sleepiness level.
On the evening of Day 30, subjects returned to the clinic. A pre-dose blood sample was collected and study drug was again administered within 5 minutes of the subject's mean habitual bedtime. A polysomnogram recording was initiated. The following morning (Day 31), postural stability and cognitive performance were assessed and a blood sample was obtained. The ISI, FSS, EQ-5D-3L and PGI-Insomnia were administered. Blood and urine samples were collected for routine safety assessment. An electrocardiogram was performed, and vital signs and weight were assessed. The eC-SSRS was then administered to the subject. At 1.5 hours after waketime, subjects rated their morning sleepiness level.
The primary endpoint was to determine the change from baseline for mean latency to persistent sleep on days 29 and 30 of 5 mg or 10 mg lemborexant compared to placebo.

[4] = tested on: Subjects Having Insomnia Disorder; test: Example 2: auditory awakening threshold
[5] = First 7 Nights of Treatment, Lemborexant 5 mg
[6] = First 7 Nights of Treatment, Lemborexant 10 mg
[7] = Last 7 Nights of Treatment, Lemborexant 5 mg
[8] = Last 7 Nights of Treatment, Lemborexant 10 mg
[9] = First 7 Nights of Treatment, Zolpidem ER 6.25 mg
[10] = Last 7 Nights of Treatment, Zolpidem ER 6.25 mg

## Cc1ncc(OC[C@@]2(c3cccc(F)c3)C[C@H]2C(=O)Nc2ccc(F)cn2)c(C)n1 [Lemborexant, (1R,2S)-2-(((2,4-dimethylpyrimidin-5-yl)oxy)methyl)-2-(3-fluorophenyl)-N-(5-fluoropyridin-2-yl)cyclopropanecarboxamide]
[1]; 10 mg, relative to baseline, placebo and zolpidem treatment groups (Table 19)
  mean subjective sleep efficiency: increased
[1]; [5]
  Subjective Sleep Efficiency, Change from Study Baseline, Mean (SD): 10.56 (12.296)
  Subjective Sleep Efficiency, Mean (SD): 65.96 (18.203)
  Subjective Sleep Efficiency, Model-adjusted change from baseline: 10.74
[1]; [6]
  Subjective Sleep Efficiency, Change from Study Baseline, Mean (SD): 13.97 (14.188)
  Subjective Sleep Efficiency, Mean (SD): 68.10 (18.356)
  Subjective Sleep Efficiency, Model-adjusted change from baseline: 13.81
[1]; [7]
  Subjective Sleep Efficiency, Change from Study Baseline, Mean (SD): 12.92 (13.884)
  Subjective Sleep Efficiency, Mean (SD): 68.19 (19.251)
  Subjective Sleep Efficiency, Model-adjusted change from baseline: 13.29
[1]; [8]
  Subjective Sleep Efficiency, Change from Study Baseline, Mean (SD): 16.12 (16.3000)
  Subjective Sleep Efficiency, Mean (SD): 69.92 (19.098)
  Subjective Sleep Efficiency, Model-adjusted change from baseline: 15.87
[2]; Lemborexant 5 mg
  Return to Sleep Latency, LSM - Difference vs. Placebo: -22.5 min
  Return to Sleep Latency, Mean (SD) change from baseline: -22.8 min
  Return to Sleep Latency, Postdose: 18.1 min
[2]; Lemborexant 10 mg
  Return to Sleep Latency, LSM - Difference vs. Placebo: -28.7 min
  Return to Sleep Latency, Mean (SD) change from baseline: -28.7 min
  Return to Sleep Latency, Postdose: 12.1 min
[2]; both doses, vs placebo and zolpidem (Table 28)
  return to sleep latency: greater reduction in return to sleep latency than treatment with placebo and zolpidem
[3]; 5 mg vs zolpidem ER 6.25 mg, Days 1/2
  LPS LSM treatment ratio: Lemborexant/Zolpidem: 0.874
[3]; 5 mg vs zolpidem ER 6.25 mg, Days 29/30
  LPS LSM treatment ratio: Lemborexant/Zolpidem: 0.634
[3]; 5 mg, Days 1/2
  LPS LSM treatment ratio: Active/Placebo: 0.850
  LPS, Mean: 28.27 min
  LPS, Median: 21.63 min
[3]; 5 mg, Days 29/30
  LPS LSM treatment ratio: Active/Placebo: 0.773
  LPS, Mean: 25.84 min
  LPS, Median: 18.75 min
[3]; 5 mg, Study Baseline
  LPS, Mean: 44.86 min
  LPS, Median: 33.13 min
[3]; 5 mg, at Days 1/2
  LPS Change from Study Baseline, Mean: -16.59 min
  LPS Change from Study Baseline, Median: -10.00 min
[3]; 5 mg, at Days 29/30
  LPS Change from Study Baseline, Mean: -19.53 min
  LPS Change from Study Baseline, Median: -12.00 min
[3]; 10 mg vs zolpidem ER 6.25 mg, Days 1/2
  LPS LSM treatment ratio: Lemborexant/Zolpidem: 0.818
[3]; 10 mg vs zolpidem ER 6.25 mg, Days 29/30
  LPS LSM treatment ratio: Lemborexant/Zolpidem: 0.594
[3]; 10 mg, Days 1/2
  LPS LSM treatment ratio: Active/Placebo: 0.795
  LPS, Mean: 25.13 min
  LPS, Median: 21.75 min
[3]; 10 mg, Days 29/30
  LPS LSM treatment ratio: Active/Placebo: 0.723
  LPS, Mean: 22.75 min
  LPS, Median: 19.25 min
[3]; 10 mg, Study Baseline
  LPS, Mean: 44.61 min
  LPS, Median: 38.50 min
[3]; 10 mg, at Days 1/2
  LPS Change from Study Baseline, Mean: -19.48 min
  LPS Change from Study Baseline, Median: -10.50 min
[3]; 10 mg, at Days 29/30
  LPS Change from Study Baseline, Mean: -21.46 min
  LPS Change from Study Baseline, Median: -16.25 min
[3]; all lemborexant treatment groups, relative to baseline, placebo group, and zolpidem group (Table 13)
  mean latency to persistent sleep: reduced
[4]; Lemborexant 5 mg
  Auditory Awakening Threshold, LSM - Difference vs. Placebo: 1.7
  Auditory Awakening Threshold, Mean (SD): 51.8
  Auditory Awakening Threshold, Median: 50.0
[4]; Lemborexant 10 mg
  Auditory Awakening Threshold, LSM - Difference vs. Placebo: −0.9
  Auditory Awakening Threshold, Mean (SD): 51.7
  Auditory Awakening Threshold, Median: 52.5
[4]; Table 27
  ability to be awakened by an external stimulus (auditory awakening threshold): did not interfere with a subject's ability to be awakened by an external stimulus

## Cc1ccc(-c2nc3ccc(C)cn3c2CC(=O)N(C)C)cc1 [Zolpidem ER, zolpidem, reference compound]
[1]; [9]
  Subjective Sleep Efficiency, Change from Study Baseline, Mean (SD): 11.96 (12.526)
  Subjective Sleep Efficiency, Mean (SD): 66.45 (16.419)
  Subjective Sleep Efficiency, Model-adjusted change from baseline: 12.11
[1]; [10]
  Subjective Sleep Efficiency, Change from Study Baseline, Mean (SD): 14.83 (15.011)
  Subjective Sleep Efficiency, Mean (SD): 69.45 (16.925)
  Subjective Sleep Efficiency, Model-adjusted change from baseline: 14.82
[2]; Zolpidem 6.25 mg
  Return to Sleep Latency, LSM - Difference vs. Placebo: -21.0 min
  Return to Sleep Latency, Mean (SD) change from baseline: -21.2 min
  Return to Sleep Latency, Postdose: 19.6 min
[3]; 6.25 mg, Days 1/2
  LPS LSM treatment ratio: Active/Placebo: 0.972
  LPS, Mean: 31.87 min
  LPS, Median: 27.00 min
[3]; 6.25 mg, Days 29/30
  LPS LSM treatment ratio: Active/Placebo: 1.218
  LPS, Mean: 37.11 min
  LPS, Median: 28.50 min
[3]; 6.25 mg, Study Baseline
  LPS, Mean: 44.52 min
  LPS, Median: 31.50 min
[3]; 6.25 mg, at Days 1/2
  LPS Change from Study Baseline, Mean: -12.56 min
  LPS Change from Study Baseline, Median: -5.63 min
[3]; 6.25 mg, at Days 29/30
  LPS Change from Study Baseline, Mean: -7.51 min
  LPS Change from Study Baseline, Median: -2.88 min
[4]; Zolpidem 6.25 mg
  Auditory Awakening Threshold, LSM - Difference vs. Placebo: 7.2
  Auditory Awakening Threshold, Mean (SD): 58.4
  Auditory Awakening Threshold, Median: 55.0
